Consider 10 compounds from US12448433B2, “Human ApoB100 epitopes, methods and uses for modulating inflammatory responses, and treating adverse cardiovascular events, disease and atherosclerosis” (LA JOLLA INSTITUTE FOR ALLERGY AND IMMUNOLOGY, priority 2015, dated 2025).

In general, IC50 refers to the concentration that gives 50% inhibition. A lower IC50 goes with inhibition by little substance.

Experiment [1] deals with T1, DPB1*04:01 (Homo sapiens, UniProt P04440).
T1 sequence (P04440 30-258): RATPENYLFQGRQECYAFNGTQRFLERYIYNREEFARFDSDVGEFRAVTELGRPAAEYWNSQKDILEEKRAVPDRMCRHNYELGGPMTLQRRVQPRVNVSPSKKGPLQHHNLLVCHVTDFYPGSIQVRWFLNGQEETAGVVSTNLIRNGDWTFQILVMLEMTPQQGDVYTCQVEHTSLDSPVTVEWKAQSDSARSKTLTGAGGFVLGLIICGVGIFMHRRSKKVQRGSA
T1 sequence (P20036 29-260 partner): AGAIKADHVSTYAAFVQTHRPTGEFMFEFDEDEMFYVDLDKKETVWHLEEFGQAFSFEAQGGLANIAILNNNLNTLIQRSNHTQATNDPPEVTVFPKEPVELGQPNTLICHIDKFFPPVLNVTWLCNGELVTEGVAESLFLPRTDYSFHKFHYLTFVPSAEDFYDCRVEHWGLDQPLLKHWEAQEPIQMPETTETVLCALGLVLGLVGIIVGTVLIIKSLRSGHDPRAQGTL
Nature of the experiment: Peptide binding to HLA-DP allele, competition assay. An excerpt:
(§1) Peptide binding to MHC-II requires anchor residues in certain positions and thus can be predicted using computer algorithms. Affinity can be measured experimentally using a competition assay (1). Both are excellent screening tools. However, affinity must be measured separately for each MHC-II allele. Humans express molecules encoded in four different MHC-II loci, denominated HLA-DRB1, DRB3/4/5, DP and DQ. Allelic variation is large, and most people are heterozygous at each locus, thus expressing up to 8 relevant MHC-II alleles. CD4 T cell responses strictly require that the antigenic peptide binds to the relevant MHC-II.
(§2) To identify peptides that could potentially be used in human patients, 30 peptides were screened for binding to 26 HLA alleles by competition assay.

The target of experiment [2] is DQB1*06:02. Put plainly: Peptide binding to HLA-DQ allele, competition assay. Also noted: species or system human.
From the text: as §1, §2

The target of experiment [3] is DRB4*01:01 (Homo sapiens, UniProt P01903+P13762, G164S). Put plainly: Peptide binding to HLA-DR allele, competition assay.
From the text: as §1, §2

Experiment [4] has as its target DPB1*14:01. Put plainly: Peptide binding to HLA-DP allele, competition assay. Also noted: species or system human.
From the text: as §1, §2

In experiment [5] the target is DPB1*04:02. Described as above. Also noted: species or system human.
From the text: as §1, §2

For experiment [6], the target named is DPB1*02:01. The description is as above. Also noted: species or system human.
From the text: as §1, §2

Experiment [7] has as its target DQB1*05:01. Put plainly: Peptide binding to HLA-DQ allele, competition assay. Also noted: species or system human.
From the text: as §1, §2

The target in experiment [8] is DRB5*01:01 (Homo sapiens, UniProt P01903+Q30154). Nature of the experiment: Peptide binding to HLA-DR allele, competition assay.
From the text: as §1, §2

Experiment [9] has as its target DRB1*04:01 (Homo sapiens, UniProt P01903+P01911, A100K/A169T/F76Y/I96L/K127E/L162R/M171V/N62H/P40V/Q125Y/R42H/S133A/S149N/S66Y/V115G/V209L/W38E). The experiment is described as above.
From the text: as §1, §2

In experiment [10] the target is HLA-DRB1*01:01 (Homo sapiens, UniProt P01903+P01911, A100R/D57E/F55L/F60I/F76Y/I96L/L162R/M171V/P40L/Q125E/R42F/V115G/Y59C). Described as above.
From the text: as §1, §2

For experiment [11], the target named is DPB1*05:01. Nature of the experiment: Peptide binding to HLA-DP allele, competition assay. Also noted: species or system human.
From the text: as §1, §2

Experiment [12] concerns the target DRB3*02:02 (Homo sapiens, UniProt P01903+P79483, A212P/D57E/F66Y/L67A/R103Q/R218S/R40L/S89Y/T80R/V86D/Y55F/Y59H). Put plainly: Peptide binding to HLA-DR allele, competition assay.
From the text: as §1, §2

Experiment [13] addresses DRB1*09:01 (Homo sapiens, UniProt P01903+P01911, A100R/A103E/D57H/D86V/F55Y/F60I/F76Y/I96F/K127E/L162R/M171V/P40D/Q125H/Q99R/R33Q/R42F/S133A/S66N/T210M/V115G/W38K/Y107V/Y59G/Y89S). Described as above.
From the text: as §1, §2

For experiment [14], the target named is DPB1*03:01. Nature of the experiment: Peptide binding to HLA-DP allele, competition assay. Also noted: species or system human.
From the text: as §1, §2

In experiment [15] the test system is atherosclerotic plaque. Put plainly: Peptide immunization in atherosclerosis model (ApoE−/− mice on western diet). The class given is in vivo, mouse. The conditions noted are these: immunization in CFA and 4×IFA.
For experiment [16], the target named is DRB1*11:01 (Homo sapiens, UniProt P01903+P01911, A100R/A169T/A87E/I96F/K41T/L162R/M171V/P40S/Q125H/Q178H/Q39Y/Q99D/R42S/S66Y/T262R/V115G/W38E). Put plainly: Peptide binding to HLA-DR allele, competition assay.
From the text: as §1, §2

Experiment [17] concerns the target DRB1*13:02 (Homo sapiens, UniProt P01903+P01911, A100E/A169T/K41T/L162R/M171V/P40S/Q125H/Q178H/Q39Y/Q99D/R42S/S66N/T262R/V115G/W38E/Y61H). The experiment is described as above.
From the text: as §1, §2

For `CC[C@H](C)[C@H](NC(=O)[C@@H](NC(=O)[C@@H](N)CC(C)C)[C@@H](C)CC)C(=O)N[C@@H](CC(N)=O)C(=O)N[C@@H](Cc1c[nH]c2ccccc12)C(=O)N[C@@H](CC(C)C)C(=O)N[C@@H](CCC(N)=O)C(=O)N[C@@H](CCC(=O)O)C(=O)N[C@@H](C)C(=O)N[C@@H](CC(C)C)C(=O)N[C@@H](CO)C(=O)N[C@@H](CO)C(=O)N[C@@H](C)C(=O)N[C@@H](CO)C(=O)N[C@@H](CC(C)C)C(=O)O` [Peptide 3563.0015], the half-inhibitory concentration (IC50) was determined as 6.19 µM in [1]; 1.95 µM in [2]; 0.012 µM in experiment [3]; 9.55 µM in experiment [4]; 2.05 µM in [5]; 16.3 µM in experiment [6].

Consider `CC[C@H](C)[C@H](NC(=O)[C@H](CC(C)C)NC(=O)[C@H](CO)NC(=O)[C@@H](NC(=O)[C@@H](NC(=O)[C@@H](N)CCCCN)[C@@H](C)CC)C(C)C)C(=O)N[C@@H](CCCCN)C(=O)N[C@@H](CC(N)=O)C(=O)N[C@@H](CC(C)C)C(=O)N[C@@H](CC(C)C)C(=O)N[C@H](C(=O)N[C@@H](C)C(=O)N[C@@H](CC(C)C)C(=O)N[C@@H](CCCCN)C(=O)N[C@@H](CC(=O)O)C(=O)O)C(C)C` [Peptide 3563.0028], for which the half-maximal inhibitory concentration (IC50) in experiment [1] came to 0.078 µM; in experiment [7], 0.124 µM; in experiment [2], 1.46 µM; in [8], 0.014 µM; in experiment [4] it was 1.8 µM; in [5], 0.155 µM. For the same compound, in experiment [6], the IC50 is 0.657 µM.

For the compound `CC(C)C[C@H](NC(=O)[C@H](CCC(N)=O)NC(=O)[C@H](C)NC(=O)[C@H](CC(N)=O)NC(=O)[C@H](C)NC(=O)[C@H](CCC(N)=O)NC(=O)[C@H](Cc1ccccc1)NC(=O)[C@H](CC(=O)O)NC(=O)[C@H](Cc1ccccc1)NC(=O)[C@H](CC(N)=O)NC(=O)[C@H](CC(C)C)NC(=O)[C@@H](NC(=O)[C@H](CCC(=O)O)NC(=O)[C@@H](N)CC(C)C)C(C)C)C(=O)N[C@@H](CO)C(=O)O` [Peptide 3563.0017], the IC50 came to 0.191 µM in experiment [1]; 0.094 µM in experiment [3]; 0.055 µM in [9]; 0.046 µM in experiment [10]; 39.4 µM in [11]; 0.586 µM in [5]. The compound further came in with an IC50 in experiment [6] of 0.086 µM.

For the compound `CC[C@H](C)[C@H](NC(=O)[C@H](CC(N)=O)NC(=O)[C@H](CCCCN)NC(=O)[C@H](CC(C)C)NC(=O)[C@H](Cc1ccccc1)NC(=O)[C@H](CCCNC(=N)N)NC(=O)[C@H](CC(C)C)NC(=O)[C@H](Cc1c[nH]cn1)NC(=O)CNC(=O)[C@@H](N)CCC(=O)O)C(=O)N[C@H](C(=O)N[C@@H](CC(C)C)C(=O)N1CCC[C@H]1C(=O)N[C@H](C(=O)N[C@@H](Cc1ccc(O)cc1)C(=O)O)C(C)C)[C@@H](C)CC` [Peptide 3563.0021], the IC50 is 6.14 µM in experiment [2]; 0.0033 µM in [3]; 0.0033 µM in experiment [12]; 2.07 µM in experiment [4]; 4.61 µM in [11]; 0.061 µM in [6].

As for `CSCC[C@H](NC(=O)[C@H](CC(C)C)NC(=O)[C@H](Cc1ccc(O)cc1)NC(=O)[C@H](C)NC(=O)[C@H](C)NC(=O)[C@H](CC(C)C)NC(=O)[C@H](CCCNC(=N)N)NC(=O)[C@H](CCCCN)NC(=O)[C@@H](N)CC(=O)O)C(=O)N[C@@H](CC(C)C)C(=O)N[C@@H](CCSC)C(=O)N[C@@H](CCCNC(=N)N)C(=O)N[C@@H](CO)C(=O)N1CCC[C@H]1C(=O)N[C@@H](CO)C(=O)O` [Peptide 3563.0004], the IC50 worked out at 0.372 µM in experiment [1]; 0.053 µM in experiment [7]; 0.013 µM in [2]; 0.012 µM in experiment [3]; 0.0071 µM in experiment [9]; 0.074 µM in [13]. The IC50 in experiment [4] is 0.102 µM; in experiment [14] it was 0.026 µM; in experiment [11], 0.0041 µM; in experiment [5], 0.023 µM; in [6], 1.68 µM.

Consider `CC[C@H](C)[C@H](NC(=O)[C@H](CCCCN)NC(=O)CN)C(=O)N[C@@H](CC(=O)O)C(=O)N[C@@H](Cc1ccccc1)C(=O)N[C@@H](CC(C)C)C(=O)N[C@@H](CC(N)=O)C(=O)N[C@@H](CC(N)=O)C(=O)N[C@@H](Cc1ccc(O)cc1)C(=O)N[C@@H](C)C(=O)N[C@@H](CC(C)C)C(=O)N[C@@H](Cc1ccccc1)C(=O)N[C@@H](CC(C)C)C(=O)N[C@@H](CO)C(=O)N1CCC[C@H]1C(=O)O` [Peptide 3563.0019], for which the IC50 in [2] turned out to be 0.495 µM; in experiment [8], 0.057 µM; in experiment [4], 6.51 µM; in experiment [11], 0.424 µM; in experiment [6], 0.456 µM.

With `CC[C@H](C)[C@H](NC(=O)[C@H](CC(C)C)NC(=O)[C@H](CCCCN)NC(=O)[C@H](CO)NC(=O)CNC(=O)[C@@H](N)C(C)C)C(=O)N[C@H](C(=O)N[C@@H](C)C(=O)N[C@@H](CCSC)C(=O)N[C@@H](CO)C(=O)N[C@@H](CO)C(=O)N[C@@H](Cc1c[nH]c2ccccc12)C(=O)N[C@@H](CC(C)C)C(=O)N[C@@H](CCC(N)=O)C(=O)N[C@@H](CCCCN)C(=O)O)C(C)C` [Peptide 3563.0008], the half-maximal inhibitory concentration (IC50) stood at 0.089 µM in [1]; 0.617 µM in experiment [2]; 0.11 µM in experiment [12]; 1.86 µM in experiment [4]; 0.128 µM in [6].

As to `CSCC[C@H](NC(=O)[C@@H](NC(=O)[C@H](Cc1ccccc1)NC(=O)[C@@H]1CCCN1C(=O)[C@H](C)NC(=O)[C@H](CCSC)NC(=O)[C@@H](NC(=O)[C@H](CO)NC(=O)[C@H](CCCNC(=N)N)NC(=O)[C@H](Cc1ccccc1)NC(=O)[C@@H](NC(=O)[C@H](CC(N)=O)NC(=O)[C@H](CO)NC(=O)[C@H](Cc1ccccc1)NC(=O)[C@@H](N)Cc1c[nH]cn1)C(C)C)C(C)C)[C@@H](C)O)C(=O)O` [Peptide 3563.0010], the IC50 worked out at 5.57 µM in experiment [7], 0.799 µM in [4], 0.008 µM in experiment [14] and 0.094 µM in experiment [11].

In the case of ovalbumin, in experiment [15], the “atherosclerotic plaque in the aortic root by serial sections” value is recorded as “not” and the “atherosclerotic plaque in the whole aorta by en face staining” value is reported as “not”.

Consider `CC(C)C[C@H](NC(=O)CNC(=O)[C@@H](N)CCCNC(=N)N)C(=O)N[C@@H](CCCCN)C(=O)N[C@@H](CC(C)C)C(=O)N[C@@H](C)C(=O)N[C@H](C(=O)N[C@@H](C)C(=O)N[C@@H](CC(C)C)C(=O)N[C@@H](CO)C(=O)N[C@@H](CC(C)C)C(=O)N[C@@H](CO)C(=O)N[C@@H](CC(N)=O)C(=O)N[C@@H](CCCCN)C(=O)N[C@@H](Cc1ccccc1)C(=O)O)[C@@H](C)O` [Peptide 3563.0020], for which the half-maximal inhibitory concentration (IC50) was determined as 2.63 µM in experiment [7]; 0.245 µM in experiment [2]; 0.017 µM in [13]; 1.2 µM in [16]; 0.0071 µM in experiment [10]; 0.0011 µM in experiment [17]. The 50% inhibitory concentration (IC50) was 0.183 µM in experiment [4] and 0.0098 µM in [11].
